Kp uu and Kp data for 10 compounds are collected here from ChEMBL document CHEMBL5252526, “Small Molecule Kinase Inhibitors for the Treatment of Brain Cancer” (J Med Chem, 2016).

Data set [1] in a line: Ratio of drug concentration in brain to plasma in mouse assessed as unbound fraction. Particulars: brain and plasma, read-out: K(p,uu,brain). It is filed as ADME, cell-free.
A short description of data set [2]: Ratio of AUC (0 to 24 hrs) in brain to plasma in mouse. Type of data set: ADME, cell-free. The conditions noted are these: brain and plasma, read-out: Ratio AUC.
Data set [3] is described as follows: Ratio of drug concentration in brain to plasma in rat. Type of data set: ADME, cell-free. Particulars: brain and plasma, read-out: BPR.
Data set [4] is described as follows: Ratio of drug concentration in brain to plasma in mouse. It is filed as ADME, cell-free. Particulars: brain and plasma, read-out: BPR.
A short description of data set [5]: Ratio of drug concentration in CSF to plasma in mouse assessed as unbound fraction. Type of data set: ADME, tissue-based. Particulars: CSF and plasma.
The nature of data set [6]: Ratio of AUC in brain to plasma in rat at 25 mg/kg, po. It is filed as ADME, organism-based. The conditions noted are these: brain and plasma, read-out: Ratio AUC.
A short description of data set [7]: Ratio of AUC in brain to plasma in rat at 75 mg/kg, po. Type of data set: ADME, organism-based. Particulars: brain and plasma, read-out: Ratio AUC.
The nature of data set [8]: Ratio of drug concentration in brain to plasma in mouse at 75 mg/kg, po. The conditions noted are these: brain and plasma, read-out: BPR. It is filed as ADME, organism-based.
The nature of data set [9]: Ratio of drug concentration in brain to plasma in rat at 3.5 mg/kg, iv. Type of data set: ADME, organism-based. The conditions noted are these: brain and plasma, read-out: BPR.

For `CCN1CCN(Cc2ccc(Nc3ncc(F)c(-c4cc(F)c5nc(C)n(C(C)C)c5c4)n3)nc2)CC1` [ABEMACICLIB], the Kp uu in data set [1] amounted to 0.2.
For `COc1cc(N2CCC(N3CCN(C)CC3)CC2)ccc1Nc1ncnc(Nc2ccccc2S(=O)(=O)C(C)C)n1` [ASP-3026], the Kp in data set [2] amounted to 0.72.
For the compound `COc1cc(Nc2c(C#N)cnc3cc(OCCCN4CCN(C)CC4)c(OC)cc23)c(Cl)cc1Cl` [BOSUTINIB], the Kp in data set [3] amounted to 0.4.
Regarding `COc1cc2c(Oc3ccc(NC(=O)C4(C(=O)Nc5ccc(F)cc5)CC4)cc3F)ccnc2cc1OCCCN1CCOCC1` [FORETINIB], in [4], the Kp stood at 0.2.
Consider `COc1cc2ncnc(Nc3ccc(F)c(Cl)c3)c2cc1OCCCN1CCOCC1` [GEFITINIB], for which the Kp uu in data set [1] is 0.02; in data set [5], 0.09.
Turning to `Cc1ccc(C(=O)Nc2ccc(CN3CCN(C)CC3)c(C(F)(F)F)c2)cc1C#Cc1cnc2cccnn12` [PONATINIB], in [4], the Kp worked out at 1.6.
On to `CC[C@H](CO)Nc1nc(NCc2ccccc2)c2ncn(C(C)C)c2n1` [SELICICLIB], for which the Kp in data set [6] is 0.3.
On to `CC(C)(O)CC(=O)NCCn1ccc2ncnc(Nc3ccc(Oc4cccc(C(F)(F)F)c4)c(Cl)c3)c21` [TAK-285], for which, in [7], the Kp was found to be 0.24.
Turning to `Cc1cc(Nc2ncnc3ccc(NC4=NC(C)(C)CO4)cc23)ccc1Oc1ccn2ncnc2c1` [TUCATINIB], the Kp in [8] was determined as 0.5.
As to `CN[C@@H]1C[C@H]2O[C@@](C)([C@@H]1OC)n1c3ccccc3c3c4c(c5c6ccccc6n2c5c31)C(=O)N[C@H]4O` [UCN-01], the Kp in data set [9] was 0.5.
